Patent US20150265680A1, “THERAPEUTIC AGENT FOR AMYOTROPHIC LATERAL SCLEROSIS” (DAIICHI SANKYO COMPANY, LIMITED, priority 2012, published 2015)
Marks after values point to notes of the source that are not given here. Where a SMILES comes first, the peptide text is derived from it. Where no end group is shown, it is not given here. [ ]: non-standard residue; d: D form. The star is where a group is joined. d2Nal = N[C@H](Cc1ccc2ccccc2c1)C(=O)O; Octanoyl = CCCCCCCC(=O)*

Legend:
SOD1^G93A mice [1] = assay: Repeated subcutaneous GHRP-6 or anamorelin from the age of 10 weeks: body weight, food intake, survival (Example 9); type: in vivo, mouse; conditions: mean ± SE; for Survival period: 1 mg/kg subcutaneously twice a day from age 10 weeks until death; for Amount of change in body weight / Food intake: 1 mg/kg subcutaneously twice a day from age 10 weeks, after 5-weeks of administration
Procedure: In the experiment, 10-week-old SOD1^G93A mice were used, which were divided into 3 groups: a vehicle group, a GHRP-6 group, and an anamorelin group. GHRP-6 (1 mg/kg), anamorelin (1 mg/kg), or a vehicle (5% mannitol solution) was subcutaneously administered thereto twice a day from the age of 10 weeks until death. Their body weight and feed weight were measured before the start of administration and after 5-weeks of administration to calculate the amount of change in body weight and food intake. The survival period of each individual was also analyzed.

SOD1^G93A mice [2] = assay: Repeated subcutaneous human ghrelin from the age of 10 weeks: body weight, food intake, muscle strength, survival (Example 5); type: in vivo, mouse
Procedure: In the experiment, 10-week-old SOD1^G93A mice were used, which were divided into 2 groups: a vehicle group and a human ghrelin group. Human ghrelin (1 mg/kg) or a vehicle (5% mannitol solution) was subcutaneously administered thereto twice a day from the age of 10 weeks until death. Their body weights and feed weights were measured before the start of administration and after 8-weeks of administration to calculate the amount of change in body weights and the food intakes. The forelimb muscle strengths were measured using a rat/mouse simple sthenometer; 200 g scale (O'HARA & CO., LTD.) before the start of administration and after 8-weeks of administration. The survival period of each individual was also analyzed.

Atrogin-1 mRNA = Atrogin-1 mRNA expression in gastrocnemial muscle by quantitative PCR under restricted feeding (Example 6); type: in vivo, mouse; conditions: relative to WT-control group = 100%, 7 weeks after start
Procedure: (§1) In the experiment, 10-week-old SOD1^G93A and WT mice were used. The WT mice were divided into 2 group, one of which was raised under voluntary intake conditions (WT-control group) and the other of which was given 2.8 to 2.9 g/day which corresponded to approximately 90% of the daily food intake under voluntary intake conditions of the SOD1^G93A mice (WT-restricted feeding group).
(§2) Human ghrelin (50 μg/day, approximately 2 mg/kg/day) was dissolved in a vehicle (saline solution) to prepare a dosing solution. An osmotic pump (ALZET® MINI-OSMOTIC PUMP MODEL 1004, DURECT Corporation) filled with the dosing solution or a saline solution was subcutaneously implanted into the back of each mouse for continuous subcutaneous administration. The administration was started from the age of 10 weeks, and the osmotic pump was replaced with a fresh one 4 weeks later.
(§3) The gastrocnemial muscles were isolated, and after mRNA extraction, the Atrogin-1 and MuRF1 mRNA expression levels were measured by quantitative PCR. The measurement value of each group was calculated as a relative value when the average mRNA expression level in the WT-control group was defined as 100%.

SOD1^G93A mice [3] = assay: Survival period with continuous subcutaneous human ghrelin from the age of 16 weeks (Example 8); type: in vivo, mouse; conditions: 50 μg/day continuous subcutaneous from age 16 weeks
Procedure: as §2, with “In the experiment, 16-week-old SOD1^G93A mice were used, which were divided into 2 groups: a vehicle group and a human ghrelin group. Human” for “Human”, “16 weeks” for “10 weeks,”, “and continued to the live individuals with” for “and”, “pump” for “pump was”, “one every” for “one”, “weeks. The survival period of each individual was analyzed.” for “weeks later.”

SOD1^G93A mice [4] = assay: Continuous subcutaneous human ghrelin under restricted feeding: body weight, skeletal muscle, motor neurons, muscle strength (Example 6); type: in vivo, mouse; conditions: 50 μg/day continuous subcutaneous
Description: In this Example, SOD1^G93A mice were raised under restricted feeding by which the daily food intake of the SOD1^G93A mice under voluntary intake conditions was set to approximately 90%. […] The administered ghrelin was examined for its effects on body weight, skeletal muscle mass, muscle strength, the number of motor neurons, and mRNA expression of Atrogin-1 and Muscle RING-finger protein-1 (MuRF1), which are both involved in skeletal muscle wasting.
as §1, §2
Their body weights were measured at the start day of administration and after 6 weeks to calculate the amount of change in body weight.
The forelimb muscle strength was measured using a rat/mouse simple sthenometer; 200 g scale (O'HARA & CO., LTD.) 7 weeks after the start of administration.
The lower-body skeletal muscle masses of the mice were measured using X-ray CT (Latheta LCT-200, Hitachi Aloka Medical, Ltd.) before the start of administration (at the age of 10 weeks) and after 7 weeks to determine the amount of change in skeletal muscle mass.
Then, the mice were anatomized, and the T9 regions of their spinal cords were extracted. Nissl-stained sections were prepared, and the number of motor neurons was histologically identified. Three non-adjacent sections were used per individual to measure the number of motor neurons present in the anterior horn. The measurement value of each group was calculated as a relative value when the average number of motor neurons in the WT-control group was defined as 100%.

MuRF1 mRNA = MuRF1 mRNA expression in gastrocnemial muscle by quantitative PCR under restricted feeding (Example 6); type: in vivo, mouse; conditions: relative to WT-control group = 100%, 7 weeks after start
Procedure: as §1, §2, §3

SOD1^G93A mice [5] = assay: Motor neuron protective effect of continuous subcutaneous human ghrelin, Nissl-stained T9 spinal cord sections (Example 4); type: in vivo, mouse; conditions: relative to WT control group = 100%; 50 μg/day continuous subcutaneous, 7 weeks after start, T9 anterior horn; mean ± SE
Procedure: In the experiment, 10-week-old SOD1^G93A and WT mice were used. […] Vehicle-administered WT mice were used as a control group. Human ghrelin (50 μg/day, approximately 2 mg/kg/day) was dissolved in a vehicle (saline solution) to prepare a dosing solution. An osmotic pump (ALZET® MINI-OSMOTIC PUMP MODEL 1004, DURECT Corporation) filled with the dosing solution or a saline solution was subcutaneously implanted into the back of each mouse for continuous subcutaneous administration. The administration was started from the age of 10 weeks and continued after replacement of the osmotic pump with a fresh one 4 weeks later. Seven weeks after the start of administration, the mice were anatomized, and the T9 regions of their spinal cords were extracted. Nissl-stained sections were prepared, and the number of motor neurons was histologically identified. Three non-adjacent sections were used per individual to measure the number of motor neurons present in the anterior horn. The measurement value of each group was calculated as a relative value when the average number of motor neurons in the control group was defined as 100%.

SOD1^G93A mice [6] = assay: Continuous subcutaneous human ghrelin from the age of 10 weeks: body weight, food intake, skeletal muscle mass, cholesterol, muscle strength, survival (Example 3); type: in vivo, mouse
Procedure: In some Examples, the WT mice were also used.
as §2, with “In the experiment, 10-week-old SOD1^G93A mice were used, which were divided into 2 groups: a vehicle group and a human ghrelin group. Human” for “Human”, “weeks” for “weeks,”, “and continued to the live individuals with” for “and”, “pump” for “pump was”, “one every” for “one”, “weeks.” for “weeks later.”
Their body weight and feed weight was measured before the start of administration and after 8-weeks of administration to calculate the amount of change in body weight and the food intake. After 8-weeks of administration, the lower-body skeletal muscle masses of the mice were measured using X-ray CT (Latheta LCT-200, Hitachi Aloka Medical, Ltd.). The plasma total cholesterol concentrations were measured with Cholesterol E—Test Wako (Wako Pure Chemical Industries, Ltd.) using plasma separated from blood collected from the tail vein after 8-weeks of administration. The forelimb muscle strengths were measured using a rat/mouse simple sthenometer; 200 g scale (O'HARA & CO., LTD.) on the 16th week of age. The survival period of each individual was also analyzed.

[7] = system: rat adrenal pheochromocytoma-derived PC-12 cells; conditions: cited from earlier work
[8] = 1 mg/kg subcutaneously twice a day from age 10 weeks, after 8-weeks of administration, mean ± SE
[9] = 50 μg/day continuous subcutaneous from age 10 weeks, after 8-weeks of administration, mean ± SE

## CN(C)N(C)C(=O)[C@@]1(Cc2ccccc2)CCCN(C(=O)[C@@H](Cc2c[nH]c3ccccc23)NC(=O)C(C)(C)N)C1 [Anamorelin, 2-Amino-N-{(1R)-2-[3-benzyl-3-(N,N′,N′-trimethylhydrazinocarbonyl)piperidin-1-yl]-1-((1H-indol-3-yl)-2-oxoethyl)-2-methylpropionamide}]
SOD1^G93A mice [1]
  Survival period: 136 ± 2 (31) day
  Amount of change in body weight: 0.9 ± 0.2 (31) g
  Food intake: 139.5 ± 2.5 (31) g

## Human ghrelin: peptide of 28 amino acids (SEQ ID NO: 1), hydroxy group of the 3rd residue (serine) acylated with n-octanoyl group; endogenous GHS-R ligand (GSS(Octanoyl)FLSPEHQRVQQRKESKKPPAKLQPR; listed as Homo sapiens)
SOD1^G93A mice [2]; 1 mg/kg subcutaneously twice a day from age 10 weeks
  Survival period longer on average than the survival days of the vehicle group: 21.8%
SOD1^G93A mice [2]; 1 mg/kg subcutaneously twice a day from age 10 weeks until death, mean ± SE
  Survival period: 179 ± 8 (13) day
SOD1^G93A mice [2]; [8]
  Amount of change in body weight: 2.1 ± 0.4 (13) g
  Food intake: 176.2 ± 3.5 (13) g
SOD1^G93A mice [2]; 1 mg/kg subcutaneously twice a day, from age 10 weeks to after 8-weeks of administration, mean ± SE
  Change in forelimb muscle strength: −0.08 ± 0.07 (13) N
Atrogin-1 mRNA
  Atrogin 1 mRNA expression level: 205 ± 34 %
SOD1^G93A mice [3]
  Survival period longer on average than the survival days of the vehicle group: 17.6%
SOD1^G93A mice [3]; mean ± SE
  Survival period: 180 ± 11 (9) day
SOD1^G93A mice [4]; relative to WT-control group = 100%, restricted feeding, T9 anterior horn
  The number of motor neurons: 66 ± 5 %
SOD1^G93A mice [4]; restricted feeding 2.8 to 2.9 g/day, 6 weeks after start
  Amount of change in body weight: −1.4 ± 0.7**^,## g
SOD1^G93A mice [4]; restricted feeding, 7 weeks after start
  Forelimb muscle strength: 0.77 ± 0.06 N
SOD1^G93A mice [4]; restricted feeding, 7 weeks after start, X-ray CT
  Amount of change in lower-body skeletal muscle: −0.9 ± 0.2**^,# g
MuRF1 mRNA
  MuRF1 mRNA expression level: 207 ± 36 %
SOD1^G93A mice [5]
  The number of motor neurons: 84 ± 7 (7)*^,## %
SOD1^G93A mice [6]; 50 μg/day continuous subcutaneous from age 10 weeks
  Survival period longer on average than the survival days of the vehicle group: 13.8%
SOD1^G93A mice [6]; [9]
  Amount of change in body weight: 2.6 ± 0.4 (15) g
  Food intake: 188.2 ± 3.6 (15) g
SOD1^G93A mice [6]; 50 μg/day continuous subcutaneous from age 10 weeks, mean ± SE
  Survival period: 173 ± 4 (15) day
SOD1^G93A mice [6]; 50 μg/day continuous subcutaneous, after 6-weeks of administration (16th week of age), mean ± SE
  Forelimb muscle strength: 0.96 ± 0.05 (15) N
SOD1^G93A mice [6]; 50 μg/day continuous subcutaneous, after 8-weeks of administration, X-ray CT, mean ± SE
  Lower-body skeletal muscle mass: 5.7 ± 0.3 (15) g
SOD1^G93A mice [6]; 50 μg/day continuous subcutaneous, after 8-weeks of administration, mean ± SE
  Plasma total cholesterol concentration: 85.8 ± 4.0 (15) mg/dL

## C[C@H](NC(=O)[C@@H](Cc1ccc2ccccc2c1)NC(=O)[C@@H](C)N)C(=O)N[C@@H](Cc1c[nH]c2ccccc12)C(=O)N[C@H](Cc1ccccc1)C(=O)N[C@@H](CCCCN)C(N)=O [Pralmorelin, D-Alanyl-D-(2-naphthyl)alanyl-L-alanyl-L-tryptophyl-D-phenylalanyl-L-lysinamide] (H-[dA][d2Nal]AW[dF]K-NH2)
[7]
  Increase of the proportion of PC-12 cells having dendrites and axons 1.5 times larger than the size of the cells, compared with a control group: approximately 1.2 times

## C[C@H](NC(=O)[C@@H](Cc1c[nH]c2ccccc12)NC(=O)[C@@H](N)Cc1c[nH]cn1)C(=O)N[C@@H](Cc1c[nH]c2ccccc12)C(=O)N[C@H](Cc1ccccc1)C(=O)N[C@@H](CCCCN)C(N)=O [GHRP-6, L-Histidyl-D-tryptophyl-L-alanyl-L-tryptophyl-D-phenylalanyl-L-lysinamide] (H-H[dW]AW[dF]K-NH2)
SOD1^G93A mice [1]
  Survival period: 138 ± 2 (30) day
  Amount of change in body weight: 1.9 ± 0.2 (30) g
  Food intake: 142.7 ± 2.1 (30) g
